Minimal effective concentration data for 25 compounds are collected here from US9200008B2 (ASKA PHARMACEUTICAL CO., LTD., priority 2010, dated 2015).

Each structure is given as a SMILES string.

The assay deals with Human prostate cancer cell lines (PC-3 cells). The assay is described as follows: Measurement of cell death-inducing activity (Test Example 1). The format is cell-based. Particulars: PC-3, 48 h, 48 hours after addition, tested at 10, 1, 0.1, 0.025 and 0.00625 μmol/L, qualitative evaluation of 10 fields, read-out: Concentration showing the cell death-inducing activity (cell death-inducing rate not less than 40%). In short, it runs like this: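 Compound treatment lasted 48 h at 10 to 0.00625 μmol/L (five levels, DMSO as control) on PC-3 cells pre-cultured 48 h at 37 °C, 5% CO2 after seeding at 1×10^5 cells/well. A cell death-inducing rate of 40% or more counted as active.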

As for `Cc1cc(Cl)ccc1-c1nc(C)c(COC(=O)Nc2ccc3c(c2)nc2n3CCCCC2)s1` [Example 13-39], the minimal effective concentration came out at 1 µM.
Then `Cc1cc(Cl)ccc1-c1nc(C)c(NC(=O)OCc2ccc3c(c2)nc2n3CCOC2)s1` [Example 9-98], with 0.00625 µM; and `Cc1ccccc1-c1ncc(C(=O)N/N=C/c2cc(C)c(O)c(C)c2)s1` [Example 23-124], with 0.1 µM; and `CCc1nc(-c2ccc(F)cc2C)sc1COC(=O)Nc1ccc2c(c1)nc1n2CCOC1` [Example 13-150], with 0.025 µM.
Regarding `COc1ccc(/C=N/NC(=O)c2sc(-c3csc4ccccc34)nc2C)cc1O` [Example 23-38], the minimal effective concentration is 1 µM.
Then `COc1cc(Cl)ccc1-c1cc(COC(=O)Nc2ccc3c(c2)nc2n3CCOC2)n(C)n1` [Example 13-99], with 0.00625 µM; and `COc1ccc(/C=N/NC(=O)c2sc(-c3scnc3C)nc2C)cc1O` [Example 23-137], with 1 µM.
With `CCc1nc(-c2ccc(Cl)cc2C)sc1NC(=O)OCc1ccc2c(c1)ncn2C` [Example 9-359], the minimal effective concentration turned out to be 0.025 µM.
With `COc1ccccc1-c1nc(C)c(NC(=O)OCc2ccc3c(c2)nc2n3CCC2)s1` [Example 9-101], the minimal effective concentration was determined as 0.1 µM.
Then `Cc1cc(F)ccc1-c1nc(C)c(COC(=O)Nc2ccc3c(c2)nc2n3CCOC2)s1` [Example 13-25], with 0.025 µM.
Then `COc1ccc(/C=N/NC(=O)c2sc(C)nc2C)cc1O` [Example 23-132], with 10 µM; and `CCn1nc(-c2ccccc2OC)cc1COC(=O)Nc1ccc2c(c1)ncn2C` [Example 13-77], with 0.1 µM.
Then `COc1ccccc1-c1nc(C)c(C(=O)N/N=C/c2ccc(N(C)C)cc2)s1` [Example 23-88], with 0.1 µM; and `CCn1nc(-c2ccc(C)cc2C)cc1NC(=O)OCc1ccc2c(c1)ncn2CC` [Example 9-236], with 0.1 µM.
For the compound `Cc1cc(F)ccc1-c1nc(C)c(NC(=O)OCc2ccc3c(c2)nc2n3CCC2)s1` [Example 9-106], the minimal effective concentration stood at 0.025 µM.
Then `CCn1nc(-c2ccc(C)cc2OC)cc1NC(=O)OCc1ccc2c(c1)ncn2C` [Example 9-227], with 0.00625 µM; and `CCn1ncc2cc(COC(=O)Nc3sc(-c4ccc(C)cc4OC)nc3C)ccc21` [Example 9-137], with 0.00625 µM.
Then `Cc1cc(/C=N/NC(=O)c2cnc(-c3ccccc3C)[nH]2)ccc1O` [Example 25-4, 2-(2-Methylphenyl)-3H-imidazole-4-carboxylic acid[1-(4-hydroxy-3-methylphenyl)methylidene]hydrazide], with 10 µM; and `CCn1cc2cc(COC(=O)Nc3sc(-c4ccc(Cl)cc4OC)nc3C)ccc2n1` [Example 9-154], with 0.025 µM; and `COc1ccc(/C=N/NC(=O)c2cc(-c3ccccc3Cl)n[nH]2)cc1O` [Example 22-1, 5-(2-Chlorophenyl)-2H-pyrazole-3-carboxylic acid [1-(3-hydroxy-4-methoxyphenyl)methylidene]hydrazide], with 10 µM.
Turning to `COc1cc(C)ccc1-c1cc(NC(=O)OCc2ccc3c(cnn3C)c2)n(C)n1` [Example 9-283], the minimal effective concentration amounted to 0.025 µM.
Then `CCn1nc(-c2ccc(C)cc2C)cc1NC(=O)OCc1ccc2c(c1)nc1n2CCOC1` [Example 9-252], with 0.1 µM; and `CCCCCCc1nc(-c2ccc(Cl)cc2)sc1C(=O)N/N=C/c1ccc(OC)c(O)c1` [Example 23-30], with 10 µM; and `Cc1ccc(-c2nc(C)c(COC(=O)Nc3ccc4c(c3)nc3n4CCSC3)s2)c(C)c1` [Example 43-3], with 0.1 µM.
Then `CCn1ncc2cc(/C=N/NC(=O)c3cc(-c4ccc(Cl)cc4OC)ns3)ccc21` [Example 49-8], with 1 µM.
